Measurements: patent publication US20120130150A1, “APPARATUS AND METHOD OF TREATMENT UTILIZING A VARYING ELECTROMAGNETIC ENERGIZATION PROFILE” (International Scientific Pty Ltd., priority 2009, published 2012)
Where a name gives a salt, the structure may show the parent alone.

Experiments:
Type in all cases: in vitro ADME
[1] = Franz-type diffusion of 5-aminolevulinic acid through human epidermis; conditions: at 4 h; 2% w/v solution in PBS pH 7.4; with Dermaportation only (0-4 h)
Description: Overview: ALA solution was applied to the surface of human epidermis for a contact period of up to 4 h. Dermaportation applied continuously from 0 to 4 h was compared to passive diffusion. ALA penetrating the epidermis would diffuse into a receptor fluid of phosphate buffered saline (pH 7.4: PBS). The receptor fluid was analysed for ALA content by high performance liquid chromatography (HPLC).
In vitro epidermal penetration: Human skin was obtained following abdominoplasty surgery under existing approval from the Human Research Ethics Committee of Curtin University. Skin from a donor was used in this study. The epidermis was heat separated from the dermis using standard procedures (Kligman and Christophers 1963). The epidermis was mounted in Franz-type diffusion cells with the stratum corneum facing the donor compartment. Skin integrity was determined by conductance measurement.
The receptor compartment was filled with phosphate buffered saline pH 7.4, stirred continuously and maintained at 37° C. throughout the experiment. ALA solution (2% w/v of ALA in phosphate buffered saline pH 7.4) was applied to the donor side of the epidermis. Dermaportation (cycle 2) was applied from time 0 to 4 h. […] The content of ALA in receptor fluid samples was analysed by HPLC with ultraviolet detection using a validated assay procedure. […]

[2] = Franz-type diffusion of hydrocortisone through human epidermis, Dermaportation vs passive; conditions: for flux (skin penetration): saturated solution in 20:80 ethanol:PBS pH 7.4; for cumulative amount penetrated: at 30 min
Description: (§1) Human skin was obtained following abdominoplasty surgery under existing approval from the Human Research Ethics Committee of Curtin University.
(§2) The epidermis was heat separated from the dermis using standard procedures (Kligman and Christophers 1963). The epidermis was mounted in Franz-type diffusion cells with the stratum corneum facing the donor compartment. Skin integrity was determined by conductance measurement. The receptor compartment was filled with 20:80 ethanol:phosphate buffered saline pH 7.4, stirred continuously and maintained at 37° C. throughout the experiment. Hydrocortisone solution (1 mL of saturated solution in 20:80 ethanol:phosphate buffered saline pH 7.4; solubility approx 1 mg/mL) was applied to the donor side of the epidermis.
(§3) Dermaportation was applied from time 0 to 4 h. Samples were removed from the receptor fluid at time points up to 4 h. At each time point the receptor fluid volume was replaced with fresh receptor solution preheated to 37° C. Four Dermaportation cells and three passive cells (no Dermaportation) were conducted using skin from the abdominal region of a donor. The content of hydrocortisone in receptor fluid samples was analysed by HPLC with ultraviolet detection using a validated assay procedure.
The cumulative amount of hydrocortisone in receptor versus time was plotted and flux values calculated from the slopes per group.

[3] = Franz-type diffusion of naltrexone through human epidermis, Dermaportation vs passive; conditions: for flux0-2h (skin penetration): 0.5% w/v in PBS pH 7.4
Description: as §1
as §2, with “phosphate” for “20:80 ethanol:phosphate”, “Naltrexone (0.5% w/v)” for “Hydrocortisone solution (1 mL of saturated solution”, “(pH 7.4)” for “pH 7.4; solubility approx 1 mg/mL)”
as §3, with “up to 8 h. At” for “up to 4 h. At”, “cells and 4 passive cells” for “cells and three passive cells”, “content of naltrexone in receptor” for “content of hydrocortisone in receptor”
The cumulative amount of naltrexone in receptor versus time was plotted and flux values calculated from the slopes per group.

[4] = Franz-type diffusion of Voltaren Emulgel diclofenac through human epidermis, Dermaportation vs passive; conditions: for flux (skin penetration): PBS receptor, 37° C.; for cumulative amount penetrated: at 8 h
Description: Human epidermis was mounted in vertical Franz type diffusion cells (stratum corneum facing up), according to the method of Kligman and Christophers (1963). Voltaren Emulgel® (1 g containing 1.16% diclofenac diethylammonium salt; Novartis) was applied to the donor compartment of diffusion cells, with PBS in the receptor compartment (3.0 mL; stirred continuously; 37° C.). Dermaportation coils were placed around the exterior of 4 cells, with 4 additional cells without coils (passive control). Dermaportation energy was applied from time 30-60 min. Samples of the receptor solution were removed and replaced with fresh buffer over an 8 h period. All samples were analysed for diclofenac content by HPLC with UV detection by a validated method. The cumulative amount of diclofenac in receptor versus time was plotted and flux values calculated from the slopes per group. Statistical analyses used a t-test on the delta scores from the zero time point to the time point in question.

## NCC(=O)CCC(=O)O [ALA, 5-aminolevulinic acid]
[1]
  applied dose penetrated to the receptor: approximately 40%

## C[C@]12CCC(=O)C=C1CC[C@@H]1[C@@H]2[C@@H](O)C[C@@]2(C)[C@H]1CC[C@]2(O)C(=O)CO [hydrocortisone, Hydrocortisone]
[2]; Dermaportation 0-4 h
  flux (skin penetration): 2.44 μg/cm^2/h
[2]; Dermaportation
  cumulative amount penetrated: 93.22 µg
[2]; passive diffusion
  cumulative amount penetrated: 2.51 µg
[2]; passive administration
  flux (skin penetration): 0.08 μg/cm^2/h

## O=C1CC[C@@]2(O)[C@H]3Cc4ccc(O)c5c4[C@@]2(CCN3CC2CC2)[C@H]1O5 [naltrexone, Naltrexone]
[3]; Dermaportation 0-4 h
  flux0-2h (skin penetration): 152.6 μg/cm^2/h
[3]; Dermaportation for 240 min, Time by Treat interaction p<0.05
  diffusion with Dermaportation compared with passive administration: diffused faster and in more quantity
[3]; passive administration
  flux0-2h (skin penetration): 1.6 μg/cm^2/h

## O=C(O)Cc1ccccc1Nc1c(Cl)cccc1Cl [diclofenac, diclofenac diethylammonium salt]
[4]; Dermaportation applied 30-60 min, Voltaren Emulgel 1 g (1.16% diclofenac diethylammonium salt)
  flux (skin penetration): 2.97 µg/h
[4]; Dermaportation applied 30-60 min
  cumulative amount penetrated: 14.25 µg
[4]; passive diffusion
  cumulative amount penetrated: 7.59 µg
[4]; passive administration, Voltaren Emulgel 1 g
  flux (skin penetration): 1.58 µg/h
[4]; passive diffusion, any time point up to 8 h
  diffusion level versus zero time point (t-test delta score): did not reach diffusion levels different from 0
